Experiment [1] deals with autologous CD4 or CD8 T cells. Description: Autologous stimulation of T lymphocytes by DCs exposed to targeted pp65 peptides, [3H] thymidine incorporation. The class given is cell-based, human. To be noted: semi mDCs loaded at 4° C., HLA-A2+/CMV positive donors, 5 days. The method, then: (§1) Peptides at a concentration of 5 μg/ml were incubated with semi mDCs from HLA-A2/CMV-positive donors for 60 min at 4° C. Subsequently, they were washed to remove unbound peptides. Autologous stimulation was done in 96-well tissue culture plates in X-vivo 15 medium. Briefly, DCs were mixed with 10^5 autologous CD4 or CD8 T cells at a DC/lymphocytes ratios of 1/5 and 1/10 in a final volume of 250 μl. Cells were incubated for 5 days and then they were pulsed with [^3H] thymidine and harvested 16 h later. [^3H] thymidine incorporation was measured in a β-scintillation counter. In some experiments, the cells were cultured for 8 days and then stained with dextramers specific for pp65 NLVPMVATV (SEQ ID NO:19) epitope.
The capacity of the NW-pp65 fusion peptide (60-mer) to activate T cells from HLA-A2+/CMV positive donors was evaluated. It should be noted that the 48-mer pp65 peptide contains both MHC class I (e.g. NLVPMVATV) (SEQ ID NO:19) and class II (e.g. AGILARNLVPMVATV (SEQ ID NO:23), FFWDANDIYRI (SEQ ID NO:24)) epitopes, allowing the detection of CD4 and CD8 T-cell responses (24-26). […] All cultures were incubated at 37° C. for 5 days and T-cell activation was determined by measuring their proliferation potential (FIG. 6A). […]

The subject of experiment [2] is CD8 T cells specific for the NLVPMVATV epitope. Description: Dextramer staining of CD8 T cells after stimulation with peptide-exposed DCs. The settings on record: DC-stimulated CD8 T cells, CMV positive donors, equal molar concentrations, n=3. The experiment is classed as cell-based, human. The procedure: as §1
Dextramers with CMV (NLVPMVATV) (SEQ ID NO:19) and HIV (ILKEPVHGV) (SEQ ID NO:22) HLA-A2 specific antigens were obtained from Immudex (Copenhagen, Denmark). Antibodies against human CD8, CD19 and CD56 were obtained from eBioscience (San Diego, Calif., USA). […] Cells were washed and resuspended in SB containing 1% paraformaldehyd and analyzed on a BD SLR II flow cytometer. The data were analyzed using FCS Express (De Novo Software, Los Angeles, Calif., USA).

In the case of “NWYLPWLGTNDWGCFTWPPWQAGILARNLVPMVATVQGQNLKYQEFFWDANDIYRIFAEL [NW-60-mer, 48-mer CMV pp65 peptide fused to NW peptide]”, in experiment [1], the “T-cell activation (proliferation, [3H]-thymidine)” value was “activated both CD8 and CD4 T cells”. Further, the “dextramer-positive CD8 T cells specific for NLVPMVATV” value in experiment [2] came to 10.50%.
